# Source: patent US4939173A, “Aryloxy alkanols as anti-retrovirus agents” (Merrell Dow Pharmaceuticals Inc., priority 1988, dated 1990)
# Experiments:
# [1] = tested on: Moloney murine leukemia virus (MoLV); assay: in vitro XC plaque assay: inhibition of murine leukemia virus plaque growth (mouse SC-1 cells, rat XC cells); type: cell-based; details: SC1, compounds added 2 hours prior to virus, read-out: IC50 (concentration giving a 50% inhibition of virus plaque growth)
# Protocol: This assay was performed according to the method of Rowe et al. (Virology, 1970, 42, 1136-39) as previously described by L. Hsu, et al. (J. Virological Methods, 1980, 1, 167-77) and T. L. Bowlin and M. R. Proffitt (J. Interferon Res., 983, 3(1), 19-31). Mouse SC-1 cells (fibroblast) (10^5) were seeded into each well of 6-well cluster plates (Costar #3506) in 4 ml Minimum Essential Medium (MEM) with 10% Fetal Calf Serum (FCS). Following an 18 hour incubation period (37° C.), Moloney murine leukemia virus (MoLV) was applied at a predetermined titer to give optimal (i.e. countable) numbers of virus plaques. Compounds were added 2 hours prior to addition of the virus. Three days later the culture medium was removed, the SC-1 cell monolayers were exposed to UV irradiation (1800 ergs), and rat XC cells (10^6) were seeded into each well in 4 ml MEM. Following an additional 3 day incubation (37° C.), these cells were fixed with ethyl alcohol (95%) and stained with 0.3% crystal violet. Plaques were then counted under low magnification. The antiviral activities of various compounds of this invention are tabulated in Table I in terms of the IC50, i,e, the concentration giving a 50% inhibition of virus plaque growth.
# HIVlGB8 strain of HIV-1 = assay: anti-HIV activity in JM T-cells pretreated with HIV-1 (syncytial cell count and p24 antigen); type: cell-based; details: after 4 days; for Syncytial count: untreated 29
# Protocol: To further confirm the antiretroviral activity of these compounds, 6-(4-phenylphenoxy)hexan-1-ol was evaluated for activity against HIV. Following overnight pretreatment of T-cells (JM cells) with the HIVlGB8 strain of HIV-1, 6-(4-phenylphenoxy)hexan-1-ol was added to the cell cultures at concentrations of 15 and 7.5 μg/ml. After 4 days the number of synctial cells in the cell culture and the amount of p24 antigen, also a measure of viral replication, were determined.
# [2] = tested on: HIV and other retroviruses; details: previously shown; cited from earlier work
Molecule,IC50 [1] [µg/mL],other results
"OCCCCOc1ccc(OCc2ccccc2)cc1 [4-(4-Benzyloxyphenoxy)butan-1-ol, 4-(4-Benzyloxyphenoxy)-butan-1-ol]",1 to 10,
"Cc1cc(C)c(OCCCCCCO)c(C)c1 [6-(2,4,6-Trimethylphenoxy)hexan-1-ol, 6-(2,4,6-trimethylphenoxy)hexan-1-ol]",5,
"OCCCCCCOc1ccc2ccccc2c1 [6-(2-Naphthylenyloxy)hexan-1-ol, 6-(2-naphthylenyloxy)hexan-1-ol]",5 to 10,
OCCCCCCOc1ccc(OCc2ccccc2)cc1 [6-(4-Benzyloxyphenoxy)hexan-1-ol],1 to 10,
OCCCCCCOc1ccc(Cc2ccccc2)cc1 [6-(4-Benzylphenoxy)hexan-1-ol],1 to 10,
O=C(O)CCC(=O)OCCCCCCOc1ccc(-c2ccccc2)cc1 [6-(4-PhenYlphenoxV)-1-hexYl succinate (monoester)],1 to 10,
OCCCCCCOc1ccc(-c2ccccc2)cc1 [6-(4-Phenylphenoxy)hexan-1-ol],2.5 to 5,"Syncytial count (HIVlGB8 strain of HIV-1; 7.5 μg/ml): 8; Syncytial count (HIVlGB8 strain of HIV-1; 15 μg/ml): 0; P24 antigen (HIVlGB8 strain of HIV-1; 15 μg/ml, untreated 801): 62 pg × 10^3 /ml; inhibition at 7.5 µg/mL (HIVlGB8 strain of HIV-1; Human immunodeficiency virus 1, T-cell, 96 h, 7.5 μg/ml, syncytial count vs untreated): 72%; inhibition at 15 µg/mL (HIVlGB8 strain of HIV-1; Human immunodeficiency virus 1, T-cell, 96 h, 15 μg/ml, syncytial count vs untreated): 100%"
"OCCCCCCOc1ccccc1 [6-Phenoxyhexan-1-ol, 6-phenoxyhexan-1-ol]",1,
O[C@H]1[C@H](O)[C@@H](O)CN2CC[C@H](O)[C@H]12 [castanospermine],,activity against HIV and other retroviruses [2]: activity against HIV and other retroviruses
heparin,,activity against HIV and other retroviruses [2]: activity against HIV and other retroviruses
